Source: PubChem BioAssay AID1963841 (Molecular Pharmacology Branch, DTP, NCI, 2024)

System: 439559-082-T-J2-PDC spheroid viability
Test: Anticancer human tumor 439559-082-T-J2-PDC patient-derived colon adenocarcinoma cell line growth inhibition [POLQ]
Conditions: spheroids with HUVEC and MSC; for IC50: curve of first compound; for viability, T/C: stronger effect = lower value
Experimental: Multicellular complex tumor spheroid response to Polymerase (POL) inhibitors (novobiocin, ART-558, RP6685) in combination with a variety of drugs and investigational agents in selected tumor cell lines
The POL inhibitors (novobiocin, ART-558, and RP6685) were evaluated both individually and in combination with standard of care and investigational anticancer small molecules within a complex spheroid model of solid tumors. . Complex spheroids include a stromal component modeled by human endothelial cells (HUVEC) and fibroblasts modeled by human mesenchymal stem cells (MSCs). The concentration ranges selected for each drug and investigational agent were based upon clinically achievable concentrations if the clinical Cmax of the agent was known.
Compounds. The drugs and investigational agents: novobiocin (NSC847541), ART-558 (NSC835418), RP-6685 (NSC848927), peposertib (NSC802822), ceralasertib (NSC780249), elimusertib (NSC800525), camonsertib (NSC841442), AZD-1390 (NSC803789), olaparib (NSC753686), talazoparib (NSC767125), rucaparib (NSC756644), sotorasib (NSC818433), MRTX-1133 (NSC836407), SN-38 (NSC673596), topotecan (NSC609699), epotoside (NSC141540), doxorubicin (NSC123127), gemcitabine (NSC613327), 5-fluorouracil (NSC19893), paclitaxel (NSC125973), vemurafenib (NSC761431), MSA-2 (NSC828583), SN-011 (NSC837082), adavosertib (NSC754352), prexasertib (NSC758257), carboplatin (NSC241240) and oxaliplatin (NSC266046), were obtained from the National Cancer Institute (NCI) Developmental Therapeutics Program Chemical Repository (21). The FDA-approved anticancer drug set is available from the Developmental Therapeutics Program at https://dtp.cancer.gov/organization/dscb/obtaining/. […] The stock solutions were prepared in dimethyl sulfoxide (DMSO, Sigma-Aldrich, St. Louis, MO, cat. D2650), except for the platinum compounds which were prepared in saline (Quality Biological, Gaithersburg, MD, cat. 114-055-101), at 800-fold the tested concentration and stored at -70 degrees C prior to their use. All drugs and investigational agents were tested over a range starting from a high concentration at or near the clinical Cmax and decreasing in half-log increments. If the clinical Cmax for an agent had not been determined, the highest concentration tested was 10 microM, except for SN-38, which was tested at a high concentration of 1 microM.
Cell Culture. All cells were maintained in an incubator at 37 degrees C and 5% CO2 with 95% humidity. The PDC lines were cultured according to standard operating procedures established by the NCI PDMR (https://pdmr.cancer.gov). Table 3 of the manuscript, lists the cell lines along with the number of the three cell types plated to form the mct-spheroids and media for tumor cell growth. After thawing, all PDC lines, except 997537-175-T-J1-PDC and 415267-285-R-J2-PDC, were cultured in Matrigel-coated flasks prepared with a working solution of 1X Ham's F-12 nutrient mix, without supplementation (Thermo Fisher Scientific, cat. 11765054), 100 U/mL penicillin-streptomycin (Thermo Fisher Scientific, cat. 15140122), and 2.5% Matrigel (Corning Inc., Corning, NY, cat. 354248) for the first three passages. The two PDC lines 997537-175-T-J1-PDC and 415267-285-R-J2-PDC were cultured on uncoated flasks. The 857933-349-R-J2-PDC line was cultured in 6C/Colon 1B media containing advanced DMEM/F-12 (Thermo Fisher Scientific, cat. 12634028), 10 mM HEPES (Thermo Fisher Scientific, cat. 15630080), 1X GlutaMAX supplement (Thermo Fisher Scientific, cat. 35050061), 0.1 mg/mL primocin (InvivoGen, San Diego, CA, cat. ant-pm-2), 10% defined fetal bovine serum, heat inactivated (HyClone Laboratories Inc., Logan, UT, cat. SH30070.03HI), 50% L-WRN conditioned media (ATCC, cat. CRL-3276), 1.25 mM N-Acetyl-L-cysteine (Sigma-Aldrich, cat. A9165), 10 mM nicotinamide (Sigma-Aldrich, cat. N0636), 1X B-27 supplement (Thermo Fisher Scientific, cat. 17504044), 1X N-2 supplement (Thermo Fisher Scientific, cat. […]

[1] = second compound 0.0316 µM, first compound 0.0316 µM
[2] = second compound 0.0316 µM, first compound 0.1 µM
[3] = second compound 0.0316 µM, first compound 0.316 µM
[4] = second compound 0.0316 µM, first compound 1 µM
[5] = second compound 0.0316 µM, first compound 3.16 µM
[6] = second compound 0.0316 µM, first compound 10 µM
[7] = second compound 0.1 µM, first compound 0.0316 µM
[8] = second compound 0.1 µM, first compound 0.1 µM
[9] = second compound 0.1 µM, first compound 0.316 µM
[10] = second compound 0.1 µM, first compound 1 µM
[11] = second compound 0.1 µM, first compound 3.16 µM
[12] = second compound 0.1 µM, first compound 10 µM
[13] = second compound 0.316 µM, first compound 0.0316 µM
[14] = second compound 0.316 µM, first compound 0.1 µM
[15] = second compound 0.316 µM, first compound 0.316 µM
[16] = second compound 0.316 µM, first compound 1 µM
[17] = second compound 0.316 µM, first compound 3.16 µM
[18] = second compound 0.316 µM, first compound 10 µM
[19] = second compound 1 µM, first compound 0.0316 µM
[20] = second compound 1 µM, first compound 0.1 µM
[21] = second compound 1 µM, first compound 0.316 µM
[22] = second compound 1 µM, first compound 1 µM
[23] = second compound 1 µM, first compound 3.16 µM
[24] = second compound 1 µM, first compound 10 µM
[25] = second compound 3.16 µM, first compound 0.0316 µM
[26] = second compound 3.16 µM, first compound 0.1 µM
[27] = second compound 3.16 µM, first compound 0.316 µM
[28] = second compound 3.16 µM, first compound 1 µM
[29] = second compound 3.16 µM, first compound 3.16 µM
[30] = second compound 3.16 µM, first compound 10 µM
[31] = second compound 10 µM, first compound 0.0316 µM
[32] = second compound 10 µM, first compound 0.1 µM
[33] = second compound 10 µM, first compound 0.316 µM
[34] = second compound 10 µM, first compound 1 µM
[35] = second compound 10 µM, first compound 3.16 µM
[36] = second compound 10 µM, first compound 10 µM
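Further: spheroids exposed to compounds for seven days before readout.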
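Wherever viability, T/C is given: 100% = DMSO vehicle control viability.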

For `CCCS(=O)(=O)Nc1ccc(F)c(C(=O)c2c[nH]c3ncc(-c4ccc(Cl)cc4)cc23)c1F` + Cc1cccc(N(C)C(=O)C2C(O)CCN2c2nc(C)cc(C(F)(F)F)c2C#N)c1, the IC50 (second compound 0.0316 µM) was > 10 µM, the IC50 (second compound 0.1 µM) was > 10 µM and the IC50 (second compound 0.316 µM) was > 10 µM. For the same compound, the IC50 (second compound 1 µM) was > 10 µM, the IC50 (second compound 3.16 µM) was > 10 µM and the IC50 (second compound 10 µM) was > 10 µM. The viability, T/C [1] was 103%, the viability, T/C [2] was 106% and the viability, T/C [3] was 92.1%. It also gave a viability, T/C [4] of 97%, a viability, T/C [5] of 94.8% and a viability, T/C [6] of 80.3%. The viability, T/C [7] was 100%, the viability, T/C [8] was 96.1% and the viability, T/C [9] was 91.5%. It also gave a viability, T/C [10] of 94.4%, a viability, T/C [11] of 113% and a viability, T/C [12] of 75.8%. The viability, T/C [13] was 93.5%, the viability, T/C [14] was 94.4% and the viability, T/C [15] was 106%. The viability, T/C [16] was 86%, the viability, T/C [17] was 99.4% and the viability, T/C [18] was 79.5%. For the same compound, the viability, T/C [19] was 96.2%, the viability, T/C [20] was 103% and the viability, T/C [21] was 92.8%. For the same compound, the viability, T/C [22] was 95.3%, the viability, T/C [23] was 91.5% and the viability, T/C [24] was 78.3%. The viability, T/C [25] was 99%, the viability, T/C [26] was 90.2% and the viability, T/C [27] was 94.9%. The viability, T/C [28] was 102%, the viability, T/C [29] was 102% and the viability, T/C [30] was 74.4%. For the same compound, the viability, T/C [31] was 101%, the viability, T/C [32] was 96.3% and the viability, T/C [33] was 82.8%. It also gave a viability, T/C [34] of 90.2%, a viability, T/C [35] of 90.2% and a viability, T/C [36] of 70.5%.
With `O=C(Nc1ccc(O)c(NS(=O)(=O)c2ccc(F)cc2)c1)c1ccc(-c2ccccc2)cc1` + Cc1cccc(N(C)C(=O)C2C(O)CCN2c2nc(C)cc(C(F)(F)F)c2C#N)c1 the IC50 (second compound 0.0316 µM) was > 10 µM, the IC50 (second compound 0.1 µM) was > 10 µM and the IC50 (second compound 0.316 µM) was > 10 µM. The IC50 (second compound 1 µM) was > 10 µM, the IC50 (second compound 3.16 µM) was > 10 µM and the IC50 (second compound 10 µM) was > 10 µM. For the same compound, the viability, T/C [1] was 92%, the viability, T/C [2] was 119% and the viability, T/C [3] was 86.7%. For the same compound, the viability, T/C [4] was 97.3%, the viability, T/C [5] was 103% and the viability, T/C [6] was 102%. For the same compound, the viability, T/C [7] was 101%, the viability, T/C [8] was 106% and the viability, T/C [9] was 100%. It also gave a viability, T/C [10] of 98.6%, a viability, T/C [11] of 107% and a viability, T/C [12] of 99.8%. For the same compound, the viability, T/C [13] was 101%, the viability, T/C [14] was 108% and the viability, T/C [15] was 92.4%. For the same compound, the viability, T/C [16] was 96.7%, the viability, T/C [17] was 105% and the viability, T/C [18] was 118%. For the same compound, the viability, T/C [19] was 96.6%, the viability, T/C [20] was 93.6% and the viability, T/C [21] was 98.4%. It also gave a viability, T/C [22] of 97.7%, a viability, T/C [23] of 101% and a viability, T/C [24] of 115%. For the same compound, the viability, T/C [25] was 98.1%, the viability, T/C [26] was 93.7% and the viability, T/C [27] was 85.7%. It also gave a viability, T/C [28] of 104%, a viability, T/C [29] of 109% and a viability, T/C [30] of 99%. It also gave a viability, T/C [31] of 97.8%, a viability, T/C [32] of 84.6% and a viability, T/C [33] of 107%. It also gave a viability, T/C [34] of 86%, a viability, T/C [35] of 104% and a viability, T/C [36] of 109%.
